Laboratory results taken from PubChem BioAssay (NCI).
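The compound was tested at five concentrations on cells cultured in 96-well plates, with a 48-hour exposure period. GI50 = concentration required for 50% inhibition of growth. Definition used: TGI = concentration required for complete inhibition of growth.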

How the values were obtained:
Assay in all cases: DTP human tumour cell line panel, 48 h
UACC-257 melanoma = test system: UACC-257 melanoma
SW-620 colon = test system: SW-620 colon
CAKI-1 renal = test system: CAKI-1 renal
LOX IMVI melanoma = test system: LOX IMVI melanoma
HOP-62 NSCLC = test system: HOP-62 NSCLC
DU-145 prostate = test system: DU-145 prostate
OVCAR-5 ovarian = test system: OVCAR-5 ovarian
SK-MEL-2 melanoma = test system: SK-MEL-2 melanoma
U251 CNS = test system: U251 CNS
SNB-19 CNS = test system: SNB-19 CNS
MDA-MB-435 = test system: MDA-MB-435
A498 renal = test system: A498 renal
BT-549 breast = test system: BT-549 breast
MOLT-4 leukemia = test system: MOLT-4 leukemia
COLO 205 colon = test system: COLO 205 colon
SK-MEL-28 melanoma = test system: SK-MEL-28 melanoma
PC-3 prostate = test system: PC-3 prostate
KM12 colon = test system: KM12 colon
MDA-MB-231 breast = test system: MDA-MB-231 breast
UO-31 renal = test system: UO-31 renal
NCI-H460 lung = test system: NCI-H460 lung
NCI/ADR-RES ovarian = test system: NCI/ADR-RES ovarian
SK-OV-3 ovarian = test system: SK-OV-3 ovarian
UACC-62 melanoma = test system: UACC-62 melanoma
CCRF-CEM leukemia = test system: CCRF-CEM leukemia
NCI-H522 lung = test system: NCI-H522 lung
HOP-92 NSCLC = test system: HOP-92 NSCLC
SNB-75 CNS = test system: SNB-75 CNS
IGROV1 ovarian = test system: IGROV1 ovarian

O=S(=O)(Nc1cccc(Cl)c1)c1ccc(-c2cnc(C3CC3)o2)cc1
TGI (UACC-257 melanoma): 30.2 µM
GI50 (SW-620 colon): 0.409 µM
TGI (SW-620 colon): 31.3 µM
GI50 (CAKI-1 renal): 0.232 µM
TGI (CAKI-1 renal): 14 µM
GI50 (LOX IMVI melanoma): 0.617 µM
TGI (LOX IMVI melanoma): 18.4 µM
GI50 (HOP-62 NSCLC): 0.74 µM
TGI (HOP-62 NSCLC): 16.3 µM
GI50 (DU-145 prostate): 2.68 µM
TGI (DU-145 prostate): 29.1 µM
GI50 (OVCAR-5 ovarian): 2.39 µM
TGI (OVCAR-5 ovarian): 18.3 µM
GI50 (SK-MEL-2 melanoma): 0.695 µM
TGI (SK-MEL-2 melanoma): 20.3 µM
GI50 (U251 CNS): 0.768 µM
TGI (U251 CNS): 19.8 µM
GI50 (SNB-19 CNS): 1.31 µM
TGI (SNB-19 CNS): 35.8 µM
GI50 (MDA-MB-435): 0.379 µM
TGI (MDA-MB-435): 16.7 µM
GI50 (A498 renal): 0.453 µM
TGI (A498 renal): 9.03 µM
GI50 (BT-549 breast): 1.25 µM
TGI (BT-549 breast): 22.7 µM
GI50 (MOLT-4 leukemia): 0.657 µM
TGI (MOLT-4 leukemia): 60.1 µM
GI50 (COLO 205 colon): 0.639 µM
TGI (COLO 205 colon): 6.18 µM
GI50 (SK-MEL-28 melanoma): 10.2 µM
TGI (SK-MEL-28 melanoma): 23 µM
GI50 (PC-3 prostate): 0.668 µM
TGI (PC-3 prostate): 17.6 µM
GI50 (KM12 colon): 0.443 µM
TGI (KM12 colon): 16.6 µM
GI50 (MDA-MB-231 breast): 2.45 µM
TGI (MDA-MB-231 breast): 22 µM
GI50 (UO-31 renal): 1.68 µM
TGI (UO-31 renal): 18.8 µM
GI50 (NCI-H460 lung): 0.446 µM
TGI (NCI-H460 lung): 16.7 µM
GI50 (NCI/ADR-RES ovarian): 0.581 µM
TGI (NCI/ADR-RES ovarian): 17 µM
GI50 (SK-OV-3 ovarian): 5.41 µM
TGI (SK-OV-3 ovarian): 24.9 µM
GI50 (UACC-62 melanoma): 0.47 µM
TGI (UACC-62 melanoma): 15.3 µM
GI50 (CCRF-CEM leukemia): 0.624 µM
TGI (CCRF-CEM leukemia): > 100 µM
GI50 (NCI-H522 lung): 0.509 µM
TGI (NCI-H522 lung): 16.2 µM
GI50 (HOP-92 NSCLC): 1.74 µM
TGI (HOP-92 NSCLC): 15.2 µM
GI50 (SNB-75 CNS): 0.208 µM
TGI (SNB-75 CNS): 1.96 µM
GI50 (IGROV1 ovarian): 0.662 µM
TGI (IGROV1 ovarian): 21.6 µM
